# Laboratory results reported in patent US20210113501A1, “METHOD OF ADMINISTERING BETA-HYDROXY-BETA-METHYLBUTYRATE (HMB)” (Metabolic Technologies, Inc., priority 2009, published 2021).
# Tests used:
# Type in all cases: in vivo, human
# [1] = Example 3: plasma HMB with probiotic supplementation; settings: 0.8 g HMB-FA vs 1.0 g CaHMB; before and after 14 days of probiotic
# Description: A study was conducted to examine the bioavailability of HMB-acid and CaHMB when also administering a probiotic. Six volunteers were tested before and after two weeks of probiotic supplementation. Between trials, each volunteer took one dose of probiotics (BC^30) every morning for 14 days. At each trial, baseline plasma HMB levels were measured, then gave each volunteer one serving of HMB (1.0 g of CaHMB or 0.8 g of HMB-FA). Plasma HMB levels were measured at 2, 5, 10, 15, 25, 35, 45, 60, 90, 120, 150, and 180 min, as well as at 6, 12, and 24 hours.
# [2] = 12-week periodized resistance-training study of HMB-FA: strength and power
# Description: The current study was a randomized, double-blind, placebo- and diet-controlled experiment consisting of a 12-week-periodized resistance-training program. The training protocol was divided into three phases and consisted of a non-linear-periodized resistance-training program for the first 8 weeks, followed by a 2-week overreaching cycle, and finally a 2-week taper of the training volume. Muscle mass, body composition, strength, power, resting plasma testosterone, cortisol, and creatine kinase (CK) levels were examined collectively at the end of weeks 0, 4, 8, and 12 to assess the chronic effects of HMB; these measures were also assessed at the end of weeks 9 and 10, corresponding to the mid- and endpoints of the phase 2 overreaching cycle.
# Twenty-four resistance-trained males were tested and included in the study. Subjects were organized into quartile blocks based on their LBM and strength. Following this, each quartile was randomized to one of the treatment groups using computer-generated random numbers. After treatment assignment, the groups were assessed to confirm there were no differences between groups. Of those randomized to the treatments, three subjects dropped from the placebo group, two because of injury and one because of the time commitment, while one dropped from the HMB-FA group due to injury. All drop outs occurred during the first 4 weeks of the study. The remaining 20 subjects (21.6±0.5 years of age) consisting of nine placebo (87.1±4.8 kg; 180.9 cm) and 11 supplemented (83.1±2.8 kg; 179.0±2.1) males with an average squat, bench press, and deadlift of 1.7±0.04, 1.3±0.04, and 2.0±0.05 times their bodyweight, respectively, completed the study. There were no significant differences for age, body weight, height, or BMI between the treatment groups at the start of the study
# Strength was assessed via a one-repetition maximum (1-RM) testing of the back squat, bench press, and deadlift. The intraclass correlation coefficient (ICC) for the test-retest of strength in the squat, bench press, and deadlift ranged from r=0.956 to 0.982. Body composition [LBM, fat mass (FM), and total mass] was determined on a Lunar Prodigy dual X-ray absorptiometry (DXA) apparatus (software version, enCORE 2008, Madison, Wis., USA). Tests for the DXA were performed at the same time of day in a fasted state and the ICC was r=0.981. Skeletal muscle hypertrophy was assessed via changes in ultrasonography (GE Logiq e 2008, Wauwatosa, Wis., USA) determined combined muscle thickness of the vastus lateralis (VL) and vastus intermedius (VI) muscles. The ICC for the test-retest of muscle thickness measurements was r=0.975.
# Peak power (PP) was assessed during maximal cycling (modified Wingate test) and jumping movements. During the cycling test, the volunteer was instructed to cycle against a predetermined resistance (7.5% of body weight) as fast as possible for 10 s on a cycle ergometer (Monark model 894e, Vansbro, Sweden). Wingate PP was recorded using Monark anaerobic test software (Version 1.0, Monark, Vansbro, Sweden). From completion of Wingate tests performed over several days, the ICC for Wingate PP was 0.966.
# Measurements of PP for the vertical jump were also taken on a multicomponent AMTI force platform (Advanced Mechanical Technology, Watertown, Mass. USA) which interfaced with a personal computer at a sampling rate of 1,000 Hz). Data acquisition software (LabVIEW, version 7.1; National Instruments Corporation, Austin, Tex., USA) was used to calculate vertical jump PP. The ICC for VJ PP was 0.971.
# Prior to the study, participants were randomly assigned to receive either 3 g per day of HMB-FA or a placebo divided equally into three servings. Each serving was formulated with 1 g of HMB-FA. The first serving was given 30 min prior to exercise and the remaining two servings given with the mid-day and evening meals. On the non-training days, participants were instructed to consume one serving with each of three separate meals throughout the day. […]
# [3] = Comparison of the CaHMB and HMB-acid strength studies; settings: comparison of two separate studies
# Description: A study was conducted to examine the effects of CaHMB on strength. A second study was conducted to examine the effects of HMB-acid on strength. The results of these studies were then compared to determine the improved efficacy of HMB-acid over CaHMB on increasing strength gains.
# Thirty-two male volunteers 19-22 yr of age were selected for the study. Body weight averaged 99.3±3.4 kg with a range of 72-136 kg and height was 185±1.5 cm with a range of 170-198 cm. Almost all subjects were engaged in some form of exercise program before the study.
# Body composition was measured with TOBEC except that all subjects were measured after an overnight fast. Measurements were made on the Friday morning before the start of the experiment and each Friday thereafter. Strength measurements were made the week before the study and consisted of three standard strength measurements: the bench press, the squat, and the hang clean. Treatments and exercise regimens were started on Monday. The exercise regimen consisted of weight training 6 day s/wk, which included work on all major muscle groups, and lasted from 2 to 3 h/day. Aerobic training was also included in the exercise workout at least three times per week. […]
# Differences between the two treatment groups were determined with at-test. […] Trends were determined for 0.05<P<0.11, and differences were considered not significant for P>0.11. […]
# [4] = after 12 weeks of training, 3 g per day
structure (smiles),measurement,setting,value
"CC(C)(O)CC(=O)O [HMB-acid, 3-hydroxy-3-methylbutyric acid]","time to peak plasma HMB, retention and bioavailability versus CaHMB",[1],"faster time to peak plasma levels, greater retention of HMB, and improved bioavailability"
same,increase in vertical jump power,[2]; after 12 weeks,19%
same,"strength increase, bench press",[2]; [4],12%
same,"strength increase, deadlift",[2]; [4],16%
same,"strength increase, squat",[2]; [4],25%
same,"strength increase, total strength",[2]; [4],18%
same,increase in Wingate peak power,[2]; over the 12-week study,18%
same,total strength increase,"[2]; over the 12-week study, 3 g per day",77.1 ± 18.4 kg
same,"net percent increase per week in squat and bench press, greater than with CaHMB",[3],~80%
